Here are results for one molecule from patent US7351720B2, “N-ureidoalkyl-piperidines as modulators of chemokine receptor activity” (Bristol-Myers Squibb Company, priority 2003, dated 2008).

A word on the melting point: it is the temperature of the solid-liquid transition. For the molecule `CC(=O)N(C)[C@@H]1CC[C@@H](NC(=O)Nc2nc(C)cs2)[C@H](CN2CCC[C@@H](Cc3ccc(F)cc3)C2)C1` [Example 1, N-{(3S,4R)-3-[3S-(4-Fluorobenzyl)-piperidin-1-ylmethyl]-4-[3-(4-methyl-thiazol-2-yl)-ureido]-(R)-cyclohexyl}-N-methyl-acetamide], the melting point was found to be 191 °C.
